This is an account of results in patent US8093386B2, “Thioaryl substituted inhibitors of zinc proteases and their use” (Bracco Imaging S.p.A, priority 2006, dated 2012).

What all share (format): biochemical
The target of test [1] is T1, MMP-2 (Homo sapiens, UniProt P08253).
T1 construct: gift of Prof; Gillian Murphy (Oncology Department, Cambridge University, UK)
T1 sequence (P08253 110-660): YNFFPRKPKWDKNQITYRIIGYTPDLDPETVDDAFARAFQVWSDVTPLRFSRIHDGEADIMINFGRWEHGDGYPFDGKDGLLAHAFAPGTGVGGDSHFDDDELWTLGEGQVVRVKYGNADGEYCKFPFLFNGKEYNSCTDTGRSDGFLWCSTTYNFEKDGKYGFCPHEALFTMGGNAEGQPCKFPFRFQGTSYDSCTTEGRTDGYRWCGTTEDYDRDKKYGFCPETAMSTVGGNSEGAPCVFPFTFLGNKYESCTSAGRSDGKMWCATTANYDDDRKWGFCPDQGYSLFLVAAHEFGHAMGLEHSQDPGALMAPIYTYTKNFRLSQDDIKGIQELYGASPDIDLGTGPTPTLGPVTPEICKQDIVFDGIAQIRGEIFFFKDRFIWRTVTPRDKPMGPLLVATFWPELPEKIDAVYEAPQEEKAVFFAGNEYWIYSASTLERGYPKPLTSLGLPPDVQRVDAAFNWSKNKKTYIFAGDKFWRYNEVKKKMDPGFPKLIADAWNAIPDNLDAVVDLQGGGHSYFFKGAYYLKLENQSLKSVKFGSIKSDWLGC
As to the kind of experiment: In vitro fluorometric inhibition assay of MMPs: MMP-2. The method, then: (§1) Analysis of the In Vitro Inhibition Activity of Zinc Metalloproteinases: In Vitro Inhibition of MMMPs
(§2) The human recombinant Progelatinase A (pro-MMP-2), B (pro-MMP-9), MMP-14cd and MMP-16cd, were provided by Prof. Gillian Murphy (Oncology Department, Cambridge University, UK); pro-MMP-1, pro-MMP-3, pro-MMP-7, pro-MMP-8, pro-MMP-13 and pro-MMP-14 were bought from Calbiochem. The proenzymes were activated immediately before the use with p-aminophenylmercuric acetate (APMA 2 mM for 1 h at 37° C. for MMP-1, MMP-2 and MMP-8, 1 mM for 1 h at 37° C. for MMP-9 and MMP-7, 1 mM for 30 min at 37° C. for MMP-13). Pro-MMP-14 and pro-MMP-3 were activated with trypsin 5 μg/ml for 15 min at 37° C. followed the soybean trypsin inhibitor (SBTI) 23 μg/ml for pro-MMP-14 and 62 μg/ml for pro-MMP-3. The catalytic domains of MMP-14 and MMP-16 were utilized without activation.
(§3) For the assay measurements, the stock solutions of the inhibitor (DMSO, 100 mM) were further diluted up to 7 different concentrations (0.01 nM-300 μM) for each MMP, in the buffer for the fluorometric assay (FAB: Tris 50 mM, pH=7.5, NaCl 150 mM, CaCl2 10 mM, Brij 35 0.05% and DMSO 1%). The solutions of activated enzyme (final concentrations 2.9 nM for MMP-2, 2.7 nM for MMP-9, 2.4 nM for MMP-7, 1 nM for MMP-14 and MMP-3, 1.5 nM for MMP-8 and MMP-16cd, 0.84 nM for MMP-14cd, 0.66 nM for MMP-13 and 0.20 nM for MMP-1) and of inhibitor were incubated in the assay buffer for 4 h at 25° C. After the addition of solution of fluorogenic substrate 200 μM Mca-Arg-Pro-Lys-Pro-Val-Glu-Nva-Trp-Arg-Lys(Dnp)-NH2 (Sigma) for MMP-3 and Mca-Lys-Pro-Leu-Gly-Leu-Dpa-Ala-Arg-NH2 (Bachem) for all the other enzymes in DMSO (final concentration 2 μM), the hydrolysis were monitored every 15 sec for 20 min, recording the increase in fluorescence (λex=325 nm, λem=400 nm) with a Molecular Device SpectraMax Gemini XS plates reader. The assays were made in triplicate in a total volume of 200 μl per well on 96 well-plates for microtitolation (Corning, black, NBS). The control wells were without inhibitor.
(§4) The inhibition activity of MMP was expressed in relative fluorescence unit (RFU). The percentage of inhibition was calculated using control reactions without inhibitor.
(§5) IC50 was determined using the formula: Vi/Vo=1/(1+[I]/IC50), wherein Vi is the initial rate of the substrate scission in presence of the inhibitor at the concentration [I] and Vo is the initial rate in the absence of inhibitor. The results were analyzed with the SoftMax Pro software and the GraFit software.

Test [2] concerns the target T2, MMP-9 (Homo sapiens, UniProt P14780).
T2 construct: gift of Prof; Gillian Murphy (Oncology Department, Cambridge University, UK)
As to the kind of experiment: In vitro fluorometric inhibition assay of MMPs: MMP-9. Here is the method: as §1
The human recombinant Progelatinase A (pro-MMP-2), B (pro-MMP-9), MMP-14cd and MMP-16cd, were provided by Prof. Gillian Murphy (Oncology Department, Cambridge University, UK); pro-MMP-1, pro-MMP-3, pro-MMP-7, pro-MMP-8, pro-MMP-13 and pro-MMP-14 were bought from Calbiochem. […] Pro-MMP-14 and pro-MMP-3 were activated with trypsin 5 μg/ml for 15 min at 37° C. followed the soybean trypsin inhibitor (SBTI) 23 μg/ml for pro-MMP-14 and 62 μg/ml for pro-MMP-3. The catalytic domains of MMP-14 and MMP-16 were utilized without activation.
as §3, with “The solutions of activated enzyme (final concentrations 2.9 nM for MMP-2, 2.7 nM for MMP-9, 2.4 nM for MMP-7, 1 nM for MMP-14 and MMP-3, 1.5 nM for MMP-8 and MMP-16cd, 0.84 nM for MMP-14cd, 0.66 nM for MMP-13 and 0.20 nM for MMP-1) and of inhibitor were incubated in the assay buffer for 4 h at 25° C.” left out
as §4, §5

In test [3] the target is T3, MMP-14 (Homo sapiens, UniProt P50281).
T3 construct: purchased Calbiochem
As to the kind of experiment: In vitro fluorometric inhibition assay of MMPs: MMP-14. The method, then:
as §1, §2, §3, §4, §5

Test [4] addresses T4, MMP-1 (Homo sapiens, UniProt P03956).
T4 construct: purchased Calbiochem
T4 sequence (P03956 100-469): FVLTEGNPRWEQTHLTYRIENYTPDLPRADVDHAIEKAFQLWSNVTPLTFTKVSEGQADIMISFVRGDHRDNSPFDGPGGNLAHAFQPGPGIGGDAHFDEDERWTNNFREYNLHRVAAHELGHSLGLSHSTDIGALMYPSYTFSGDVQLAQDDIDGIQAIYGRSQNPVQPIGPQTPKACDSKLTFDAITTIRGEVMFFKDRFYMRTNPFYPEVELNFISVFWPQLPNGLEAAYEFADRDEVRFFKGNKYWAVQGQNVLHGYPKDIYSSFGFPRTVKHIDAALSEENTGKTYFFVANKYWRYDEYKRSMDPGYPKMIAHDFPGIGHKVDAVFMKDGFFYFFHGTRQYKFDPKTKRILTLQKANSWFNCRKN
As to the kind of experiment: In vitro fluorometric inhibition assay of MMPs: MMP-1. The conditions noted are these: Table I, cells without (*). Here is the method:
as §1, §2, §3, §4, §5

The structures appear in SMILES notation.

The IC50 is the concentration at which inhibition is half-maximal. High values mean a need for much substance, low ones inhibition by little substance.

T2 sequence (P14780 107-707 limits assumed): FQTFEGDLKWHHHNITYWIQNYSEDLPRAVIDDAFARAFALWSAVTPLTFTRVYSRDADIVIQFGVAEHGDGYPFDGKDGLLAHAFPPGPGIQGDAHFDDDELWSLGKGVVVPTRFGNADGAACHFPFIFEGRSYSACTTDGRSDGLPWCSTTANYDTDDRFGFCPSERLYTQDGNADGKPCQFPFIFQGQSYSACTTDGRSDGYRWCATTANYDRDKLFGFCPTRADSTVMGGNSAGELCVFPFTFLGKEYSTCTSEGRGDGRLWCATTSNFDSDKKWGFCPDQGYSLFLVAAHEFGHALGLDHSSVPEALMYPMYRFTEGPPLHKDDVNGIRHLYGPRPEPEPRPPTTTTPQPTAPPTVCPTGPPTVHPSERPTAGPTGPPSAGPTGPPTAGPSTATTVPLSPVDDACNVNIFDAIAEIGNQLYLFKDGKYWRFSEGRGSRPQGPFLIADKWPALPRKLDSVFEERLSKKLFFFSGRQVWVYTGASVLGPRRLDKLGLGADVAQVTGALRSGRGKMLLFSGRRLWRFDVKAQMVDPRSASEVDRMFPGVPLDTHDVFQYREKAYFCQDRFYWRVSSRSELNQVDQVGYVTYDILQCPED

On to `COc1ccc(Oc2ccc(S(=O)(=O)c3ccccc3CP(=O)(O)O)cc2)cc1` [Compound 72, 2-(4-(4-methoxyphenoxy)phenylsulphonyl)benzyl phosphonic acid], for which the half-inhibitory concentration (IC50) in test [1] (Table III, pH 6.7) was 0.571 ± 0.045 µM; in test [2] (Table III, pH 6.7), 0.168 ± 0.027 µM; in test [3] (Table III, pH 6.7), 1.95 ± 0.212 µM.
Regarding `COc1ccc(Oc2ccc(Sc3ccccc3CC(=O)O)cc2)cc1` [Compound 11, 2-(2-(4-(4-methoxyphenoxy)phenylthio)phenyl)acetic acid], the IC50 stood at 20 ± 8 µM in test [1] (Table III, cells without (*)); 48.7 ± 8.6 µM in test [2] (Table III, cells without (*)); 297 ± 64 µM in test [3] (Table III, cells without (*)).
On to `COc1ccc(-c2ccc(S(=O)(=O)c3ccccc3CP(=O)(O)O)cc2)cc1` [Compound 86, 2-(4′-methoxybiphenyl-4-ylsulphonyl)benzylphosphonic acid], for which the IC50 in test [1] (Table II, cells marked (*)) turned out to be 0.384 ± 0.031 µM; in test [2] (Table II, cells marked (*)), 2.47 ± 0.212 µM; in test [3] (Table II, cells marked (*)), 8.33 ± 0.511 µM.
For `O=C1CC(c2ccccc2Sc2ccc(-c3ccccc3)cc2)C(=O)N1O` (centres unmarked), the IC50 in test [4] came to 83 ± 11 µM; in test [1] (Table I, cells without (*)), 12 ± 0.8 µM; in test [2] (Table I, cells without (*)), 35 ± 2.7 µM.
Turning to `O=C(Cc1ccccc1Sc1ccc(-c2ccsc2)cc1)NO` [Compound 30, N-hydroxy-2-(2-(4-(thiophene-3-yl)phenylthio)phenyl)acetamide], the IC50 came out at 0.0379 ± 0.0022 µM in test [1] (Table I, cells marked (*)) and 1.11 ± 0.136 µM in test [2] (Table I, cells marked (*)).
On to `COc1ccc(-c2ccc(Sc3ccccc3C(C)C(=O)O)cc2)cc1` (centres unmarked) [Compound 54], for which the IC50 was 0.159 ± 0.0068 µM in test [1] (Table II, cells marked (*)) and 9.95 ± 0.916 µM in test [3] (Table II, cells marked (*)).
`COc1ccc(-c2ccc(Sc3ccccc3C(C)C(=O)NS(C)(=O)=O)cc2)cc1` (centres unmarked) [Compound 57, 2-(2-(4′-methoxybiphenyl-4-ylthio)phenyl)-N-(methylsulphonyl)propanamide]: the IC50 in test [1] (Table II, cells without (*)) was 65.8 ± 5.8 µM; in test [2] (Table II, cells without (*)), 73.7 ± 7.8 µM; in test [3] (Table II, cells without (*)), 156 ± 9.5 µM.
The corresponding values for `COc1ccc(-c2ccc(Sc3ccccc3CC(=O)NS(C)(=O)=O)cc2)cc1` [Compound 25, 2-(2-(4′-methoxybiphenyl-4-ylthio)phenyl)-N-(methylsulphonyl)acetamide] are 5.34 ± 0.65 µM, 17.7 ± 1.4 µM and 127 ± 6.9 µM.
For the compound `COc1ccc(Oc2ccc(Sc3ccccc3CC(=O)NS(C)(=O)=O)cc2)cc1` [Compound 39, 2-(2-(4-(4-methoxyphenoxy)phenylthio)phenyl)-N-(methylsulphonyl)acetamide], the IC50 in test [1] (Table III, cells marked (*)) was determined as 183 ± 18.4 µM; in test [2] (Table III, cells marked (*)), 106 ± 23.6 µM; in test [3] (Table III, cells marked (*)), 272 ± 18.7 µM.
Turning to `COc1ccc(-c2ccc(Sc3ccccc3CC(=O)O)cc2)cc1` [Compound 22, 2-(2-(4′-methoxybiphenyl-4-ylthio)phenyl)acetic acid], the IC50 is 0.114 ± 0.005 µM in test [1] (Table II, cells marked (*)) and 3.65 ± 0.2 µM in test [3] (Table II, cells marked (*)).
Take `COc1ccc(Oc2ccc(S(=O)(=O)c3ccccc3C(=O)NS(C)(=O)=O)cc2)cc1` [Compound 38, 2-(4-(4-methoxyphenoxy)phenylsulphonyl)-N-(methylsulphonyl)benzamide]: the IC50 in test [1] (Table III, cells marked (*)) came to 20.5 ± 2.1 µM; in test [2] (Table III, cells marked (*)) it was 101 ± 5.9 µM; in test [3] (Table III, cells marked (*)) it was 528 ± 58.1 µM.
Take `COc1ccc(-c2ccc(Sc3ccccc3C(=O)NS(C)(=O)=O)cc2)cc1` [Compound 48, 2-(4′-methoxybiphenyl-4-ylthio)-N-(methylsulphonyl)benzamide]: the IC50 in test [1] (Table II, cells without (*)) amounted to 41.8 ± 5.1 µM; in test [3] (Table II, cells without (*)) it was 73.1 ± 7.9 µM.
On to `COc1ccc(-c2ccc(Sc3ccccc3C(C)C(=O)NO)cc2)cc1` (centres unmarked) [Compound 56a, N-hydroxy-2-(2-(4′-methoxybiphenyl-4-ylthio)phenyl)propanamide], for which the IC50 in test [1] (Table II, cells marked (*)) was determined as 0.0272 ± 0.0016 µM; in test [3] (Table II, cells marked (*)) it was 6.5 ± 0.597 µM.
Regarding `O=C(O)CCC(C(=O)O)c1ccccc1Sc1ccc(-c2ccccc2)cc1` (centres unmarked), the IC50 in test [4] came out at 190 ± 10 µM; in test [1] (Table I, cells without (*)), 1.8 ± 0.16 µM; in test [2] (Table I, cells without (*)) it was 17 ± 0.96 µM.
Consider `COc1ccc(Oc2ccc(Sc3ccccc3C(=O)NS(C)(=O)=O)cc2)cc1` [Compound 8, 2-(4-(4-methoxyphenoxy)phenylthio)-N-(methylsulphonyl)benzamide], for which the IC50 in test [1] (Table III, cells marked (*)) was 12.2 ± 1.6 µM; in test [2] (Table III, cells marked (*)), 17.8 ± 1.3 µM; in test [3] (Table III, cells marked (*)) it was 79 ± 6 µM.
Take `COc1ccc(-c2ccc(Sc3ccccc3C(=O)O)cc2)cc1` [Compound 47, 2-(4′-methoxybiphenyl-4-ylthio)benzoic acid]: the 50% inhibitory concentration (IC50) in test [1] (Table II, cells marked (*)) stood at 62.5 ± 6.27 µM; in test [2] (Table II, cells marked (*)), 83.5 ± 5.87 µM; in test [3] (Table II, cells marked (*)), 116 ± 9.79 µM.
In the case of `O=C1CC(c2ccccc2S(=O)(=O)c2ccc(-c3ccccc3)cc2)C(=O)N1O` (centres unmarked), the IC50 worked out at 186 ± 8 µM in test [4]; 7 ± 0.5 µM in test [1] (Table I, cells without (*)); 47 ± 2.7 µM in test [2] (Table I, cells without (*)).
On to `COc1ccc(Oc2ccc(S(=O)(=O)c3ccccc3CC(=O)NS(C)(=O)=O)cc2)cc1` [Compound 43, 2-(2-(4-(4-methoxyphenoxy)phenylsulphonyl)phenyl)-N-(methylsulphonyl)acetamide], for which the IC50 in test [1] (Table III, cells marked (*)) was 78.6 ± 6.3 µM; in test [2] (Table III, cells marked (*)), 47.3 ± 2 µM; in test [3] (Table III, cells marked (*)), 260 ± 30.1 µM.
Regarding `COc1ccc(Oc2ccc(Sc3ccccc3CC(=O)NO)cc2)cc1` [Compound 13], the IC50 in test [1] (Table III, cells without (*)) was determined as 0.568 ± 0.031 µM; in test [2] (Table III, cells without (*)) it was 0.105 ± 0.013 µM.
Consider `COc1ccc(-c2ccc(S(=O)(=O)c3ccccc3C(=O)NS(C)(=O)=O)cc2)cc1` [Compound 106, 2-(4′-methoxybiphenyl-4-yl-sulphonyl)-N-(methylsulphonyl)benzamide], for which the 50% inhibitory concentration (IC50) in test [1] (Table II, cells without (*)) was 22.5 ± 2.1 µM; in test [3] (Table II, cells without (*)) it was 64.7 ± 2.9 µM.
